# Test results reported in PubChem BioAssay AID1419 (Emory University Molecular Libraries Screening Center, 2008).
# The source made the active and inactive calls. No rule for the calls is given here.
# Test: blockers of an Epstein-Barr virus protein-peptide interaction – biochemical, fluorescence polarization, dose response (AID 1419)
# Details: cell-free protein-peptide binding, 2 h; for fold change: measured here: P channel fold over control, at 54 µM
Compound,IC50,fold change
CN(C)c1ccc(/C=C/C(=O)c2cc(Cl)ccc2O)cc1,15.9 µM,1.94
CN(C)c1ccc(Nc2c3c4c(cccc4n(C)c2=O)C(=O)c2ccccc2-3)cc1,> 54 µM (inactive),1.1
COc1ccc(-c2c(C#N)c(N)nc3sc(C(=O)c4ccc(C)cc4)c(N)c23)cc1,23.5 µM,5.33
CCOc1cc(C=C2C(=O)c3ccccc3C2=O)ccc1OCC(=O)Nc1ccc(C)cc1,2.18 µM,11.6
O=[N+]([O-])c1ccc(-c2nc3ccc([N+](=O)[O-])cc3[nH]2)cc1,> 54 µM (inactive),1.04
C=CCN1CC(c2nc3ccccc3n2CCOc2ccccc2)CC1=O (configuration not stated),34.2 µM (inactive),1.08
O=c1[nH]c(S)c(/C=C2\C=Nc3ccccc32)s1,2 µM,3.56
CC(C)(O)[C@H]1O[C@H]2CC[C@@]3(C)[C@@](O)(CC[C@H]4Cc5c([nH]c6ccccc56)[C@@]43C)C2=CC1=O,2.03 µM,3.36
CCOC(=O)c1c(C)[nH]c(C)c1C(=O)CSc1nc2ccccc2n1CC,> 54 µM (inactive),1.24
O=C(CSc1nc(-c2ccccc2)nc2c1Cc1ccccc1O2)Nc1ccc(C(=O)O)cc1,1.64 µM,1.12
CN1CCC2(CC1)C1CN(C)CC=C1C(C#N)=C(N)C2(C#N)C#N (configuration not stated),2.49 µM,7.69
CN1CC=C2C(C#N)=C(N)C(C#N)(C#N)[C@H](c3ccoc3)[C@H]2C1,> 54 µM (inactive),1.96
O=C(COc1ccc(/C=N/NC(=O)c2ccc(O)cc2)cc1)Nc1ccc([N+](=O)[O-])cc1,2.97 µM,0.957
CCn1c(SC(C)C(=O)O)nc2sc3c(c2c1=O)CCC3 (configuration not stated),> 54 µM (inactive),1.12
Cn1c(=O)c(Nc2ccc(Cl)cc2)c2c3c(cccc31)C(=O)c1ccccc1-2,< 0.42 µM,25.4
Cc1cc2nc3c(=O)n(C4CCCCC4)c(=O)[nH]c3nc2cc1N,< 0.42 µM,132
Cc1ccc(-n2cccc2/C=C2\C(=N)N3N=C(c4ccco4)SC3=NC2=O)cc1,> 54 µM (inactive),1.17
COc1ccc(-n2cccc2/C=C2\C(=N)N3N=C(c4ccco4)SC3=NC2=O)cc1,2.85 µM,1.17
COC(=O)c1cc2c(-c3ccccc3)c(C)c3ccccn3c-2c1C(=O)OC,9.93 µM,1.47
CSc1nc(N(CCO)CCO)c2sc3nc(-c4ccco4)c4c(c3c2n1)CCC4,> 54 µM (inactive),1.07
O=C(O)CSc1cc(C(=O)c2ccccc2O)cn2c(=O)c3c4c(sc3nc12)CCCC4,> 54 µM (inactive),1.02

Compound,IC50,fold change
O=c1c(/C=C(\O)c2ccccc2)nc2ccccc2n1-c1ccccc1,14.1 µM,27.6
S=C(Nc1ccc(N2CCOCC2)cc1)Nc1ccc2nc(-c3ccco3)c(-c3ccco3)nc2c1,3.86 µM,3.7
CCSc1nnc(-c2sc3nnc(-c4ccccc4)c(-c4ccccc4)c3c2N)o1,2.2 µM,36.9
CC(=O)n1c(C=Nc2ccc(Cl)cc2)c(O)c2ccccc21,1.09 µM,31.8
O=c1[nH]c2cc3c(cc2cc1CN(Cc1nnnn1CC1CCCO1)C1CCCCC1)OCO3 (configuration not stated),51.6 µM (inactive),1.73
CCCSCCCNC(=O)CC1Oc2ccccc2NC1=O (configuration not stated),> 54 µM (inactive),1.09
Cc1ncc([N+](=O)[O-])n1Cc1cccc2ccccc12,> 54 µM (inactive),0.957
Fc1ccccc1C(c1nnnn1C1CCCC1)N1CCN(Cc2ccccc2)CC1 (configuration not stated),> 54 µM (inactive),1.05
c1ccc2c(c1)CCCN2Cc1nnnn1CC1CCCO1 (configuration not stated),4.98 µM,2.55
O=c1cc2oc3cc(O)c(O)cc3c(-c3ccccc3O)c-2cc1O,5.29 µM,232
COc1ccc2c(C=Nc3c(C)n(C)n(-c4ccccc4)c3=O)c(O)n(Cc3ccco3)c(=O)c2c1,4.28 µM,3.39
O=c1[nH]c2c(s1)C=Nc1ccccc1N2,0.81 µM,9.16
Cc1nnc(NC(=O)COc2ccc3c(C)cc(=O)oc3c2)s1,> 54 µM (inactive),1.06
COC(=O)c1cc(NC(=O)c2ccccc2)c(=O)oc1/C=C/Nc1ccc(Oc2ccccc2)cc1,1.4 µM,22
O=C(/C(=C(\[O-])c1ccccc1)[n+]1ccc2ccccc2c1)c1ccc(Cl)cc1,8.26 µM,2.35
N#Cc1c(C#N)c(O)c2ccccc2c1O,4.02 µM,3.34
Cc1nc2nc(-c3cccs3)cn2nc1C,1.87 µM,6.46
O=C(CSc1n[nH]c(=O)[nH]c1=O)Nc1ccc2c(c1)C(=O)c1ccccc1C2=O,9.26 µM,1.21
O=C(O)COn1c(-c2ccccc2)nc2ccc([N+](=O)[O-])cc21,> 54 µM (inactive),1.17
CCN(CC)c1ccc(N=Cc2c(O)n(-c3ccc(OC)cc3)c(=O)[nH]c2=O)cc1,6.01 µM,17.1
CC1=Nc2ccccc2/C1=C\c1nc(-c2ccc(F)cc2)oc1O,1.7 µM,19

Compound,IC50,fold change
CCN(CC)CCN1C(=O)c2cccc3cc(N)cc(c23)C1=O,3.39 µM,3.91
CCCCC1=CC2=C(c3ccco3)C(=O)C(C)(OC(=O)c3ccc(OC)cc3)C(=O)C2=CN1CCc1ccccn1 (configuration not stated),> 54 µM (inactive),1.16
Cn1c(=O)c2[nH]c(-c3ccccc3Cl)c(O)c2n(C)c1=O,1.99 µM,2.61
Cn1cc(/C=C2\SC(=O)NC2=S)c2ccccc21,> 54 µM (inactive),2.12
COc1ccc(C2CC(c3cccs3)=NN2c2ccc(C=O)cc2)cc1 (configuration not stated),16.2 µM,15.4
CCCOc1cc(N(CC)CC)ccc1/C=C(/C#N)c1nc2ccc(C)cc2[nH]1,11.8 µM,12.9
O=C1C2CC=C(Cl)CC2C(=O)N1CCCCCCN1C(=O)C2CC=C(Cl)CC2C1=O (configuration not stated),6.72 µM,1.89
COc1cc(/C=C2\SC(=O)N(c3cccc(Cl)c3)C2=O)cc([N+](=O)[O-])c1O,3.51 µM,1.04
COc1ccccc1N1CCN(CC(O)COc2cccc3ccccc23)CC1 (configuration not stated),> 54 µM (inactive),0.917
COC(OC)c1ccnc(-c2ccc(OC(=O)c3cccs3)cc2)n1,> 54 µM (inactive),0.937
CN(C)c1ccc(/C=C2\SC(=O)N(CC(O)Cn3c4ccccc4c4ccccc43)C2=O)cc1 (configuration not stated),2.46 µM,10.3
Cc1c(N=C2N=C(NC(=O)c3cccs3)c3ccccc32)c(=O)n(-c2ccccc2)n1C,3.19 µM,4.49
COc1cccc(CN2C(=O)c3cccc(N)c3C2=O)c1,4.47 µM,2.76
Cc1nc(Cl)c2c(n1)NC1=C(O2)C(=O)CCC1,0.86 µM,22.3
CC(C)N(C(=O)C[n+]1ccc(/C=N/O)cc1)C(C)C,> 54 µM (inactive),1.05
CC(C)COc1ccc(C(=O)NC(CC(C)C)C(=O)O)cc1 (configuration not stated),> 54 µM (inactive),1.07
CCn1c2ccccc2c2cc(NC(=O)c3coc(=O)c(Br)c3)ccc21,< 0.42 µM,21.9
CCC1=NN2C(=N)/C(=C\c3cccn3-c3ccc(Br)cc3)C(=O)N=C2S1,> 54 µM (inactive),1.04
CCCCn1c(N)c(NCCC(C)C)c(=O)[nH]c1=O,24.4 µM,1.91
O=C(Cn1cnc2scc(-c3cccc([N+](=O)[O-])c3)c2c1=O)NCc1ccco1,> 54 µM (inactive),1.04
CCN(CC)c1ccc2cc(-c3nc(-c4ccc(OC)cc4)cs3)c(=O)oc2c1,< 0.42 µM,58

Compound,IC50,fold change
CN1CCN(C2=Nc3c(Cl)cc(Cl)c4cccc2c34)CC1,9.23 µM,3.09
NC(=O)c1sc2nc3c(c(-c4ccccc4)c2c1N)CCC3,> 54 µM (inactive),0.963
C=CCN1C(=O)/C(=C/c2ccc(N(C)C)cc2)S/C1=N\c1nnc(CC)s1,9.51 µM,10.2
CCOC(=O)Cn1c2ccc(OC)cc2c2nc3ccccc3nc21,0.79 µM,6.57
O=C1CCNc2c(Cl)cc(Cl)cc21,11.1 µM,2.51
O=C1c2cccc3c(O)ccc(c23)C(=O)N1Cc1ccco1,< 0.42 µM,134
C=CCn1c(C)cc(C(=O)COC(=O)COc2ccccc2C#N)c1C,> 54 µM (inactive),1.04
CCOC(=O)/C(C#N)=C/c1ccc(N2CCN(Cc3ccccc3)CC2)cc1,40.3 µM (inactive),9.09
NS(=O)(=O)c1ccc(N/N=C/c2ccc(O)c(O)c2O)c([N+](=O)[O-])c1,3.19 µM,1.05
Cc1ccc(OCCn2c(C3CC(=O)N(Cc4ccccc4)C3)nc3ccccc32)cc1 (configuration not stated),> 54 µM (inactive),1.15
CN1C(=O)C(=Cc2ccc(N3CCCCCC3)cc2)C(=O)N(C)C1=O,6.16 µM,11.1
N#CC1=C(N)N2C(=C(C#N)C1c1ccccc1)Sc1ccccc12 (configuration not stated),> 54 µM (inactive),2.54
O=C1CCNc2ccc(-c3ccccc3)cc21,< 0.42 µM,32.7
COc1cc(/C=N/c2oc(-c3ccccc3)cc2C#N)ccc1O,15.5 µM,10.2
O=C1c2ccccc2-c2ncnc3c(N4CCOCC4)cc(N4CCOCC4)c1c23,> 54 µM (inactive),1.1
Cn1c(=O)c(NCCc2ccccc2)c2c3c(cccc31)C(=O)c1ccccc1-2,< 0.42 µM,226
CCNc1cccc2c1C(=O)N(C)C2=O,0.96 µM,24.2
COc1cc(CCC(=O)N2CCN(c3ncccn3)CC2)cc(OC)c1OC,> 54 µM (inactive),1.05
